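48-hour exposure; five concentrations; linearly interpolated endpoints. Here, GI50 denotes the concentration required for 50% inhibition of growth. TGI: total growth inhibition.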
What was measured:
Experiment in all cases: NCI anticancer screen, dose series, 48 h
SN12C renal = test system: SN12C renal
SK-MEL-2 melanoma = test system: SK-MEL-2 melanoma
DU-145 prostate = test system: DU-145 prostate
CAKI-1 renal = test system: CAKI-1 renal
ACHN renal = test system: ACHN renal
MDA-MB-231 breast = test system: MDA-MB-231 breast
HOP-62 NSCLC = test system: HOP-62 NSCLC
IGROV1 ovarian = test system: IGROV1 ovarian
786-0 renal = test system: 786-0 renal
CCRF-CEM leukemia = test system: CCRF-CEM leukemia

Compound | GI50 (SN12C renal) [µM] | TGI (SN12C renal) [µM] | GI50 (SK-MEL-2 melanoma) [µM] | TGI (SK-MEL-2 melanoma) [µM] | GI50 (DU-145 prostate) [µM] | TGI (DU-145 prostate) [µM] | GI50 (CAKI-1 renal) [µM] | TGI (CAKI-1 renal) [µM] | GI50 (ACHN renal) [µM] | TGI (ACHN renal) [µM] | GI50 (MDA-MB-231 breast) [µM] | TGI (MDA-MB-231 breast) [µM] | GI50 (HOP-62 NSCLC) [µM] | TGI (HOP-62 NSCLC) [µM] | GI50 (IGROV1 ovarian) [µM] | TGI (IGROV1 ovarian) [µM] | GI50 (786-0 renal) [µM] | TGI (786-0 renal) [µM] | GI50 (CCRF-CEM leukemia) [µM] | TGI (CCRF-CEM leukemia) [µM]
CCOC(=O)c1c2c(n3ccc(NC(=O)CCN4CCCC4)cc13)C(=O)c1ncccc1C2=O | 1.43 | 3.47 | 18.5 | 39.3 | 1.46 | 2.96 | 0.181 | 1.55 | 0.0382 | 1.52 | 1.84 | 3.83 | 1.08 | 3.11 | 1.01 | 3.27 | 0.214 | 1.69 | 1.88 | 5.41
COc1ccc(N=C2CSc3nnc(-c4cc(F)c(Cl)cc4Cl)n3N2)cc1 | 2.61 | 14.4 | 2.75 | 13.4 | 1.47 | 3.87 | 1.52 | 4.49 | 2.33 | 11.5 | 1.41 | 12.8 | 0.458 | 2.77 | 0.187 | 0.595 | 1.04 | 4 | 0.674 | > 100
COc1cc([C@H]2c3cc4c(cc3O[C@@]3(O)COC(=O)[C@@H]23)OCO4)cc(OC)c1OC |  | > 100 |  | > 100 |  | > 100 |  | > 100 |  | > 100 |  | > 100 |  | > 100 |  | > 100 |  | > 100 |  | > 100
O=C(CCCCCCSc1nc(-c2ccccc2)cc(-c2ccc(Cl)cc2)n1)NO | 2.14 | 6.35 | 3.65 | 16.2 | 2.25 | 10.6 | 1.51 | 6.89 | 1.58 | 3.64 | 2.65 | 8.96 | 1.96 | 5.24 | 1.24 | 6.5 | 2.22 | 6.92 | 0.629 | 6.49
O=P(O)(CCP(=O)(O)c1ccccc1)c1ccccc1 |  | > 100 |  | > 100 |  | > 100 |  | > 100 |  | > 100 |  | > 100 |  | > 100 |  | > 100 |  | > 100 |  | > 100
COc1ccc2nc(N/N=C(\C)c3ccccn3)cc(C)c2c1 | 0.317 | 1.71 | 0.174 | 0.973 | 0.215 | 1.17 | 0.271 | 1.17 | 0.22 | 1.21 | 0.232 | 1.87 | 0.259 | 1.11 | 0.219 | 1.05 | 0.284 | 1.21 | 0.0679 | 0.4
CNC(=O)c1cc(OC2CCC(NC(=O)Nc3ccc(Cl)c(C(F)(F)F)c3)CC2)ccn1 (stereo not given) | 6.2 | 22.1 | 15.8 | 38.3 | 12.8 | 32.5 | 6.75 | 31.9 | 7.76 | 31.5 | 3.23 | 15.9 | 15 | 31.4 | 13.4 | 39.6 | 8.34 | 25 | 4.41 | > 100
Cc1ccc(CNc2c3ccccc3nc3ccccc23)cc1 | 2.6 | 11.1 | 2.06 | 4.47 | 3.02 | 11.4 | 1.53 | 4.57 | 1.63 | 3.95 | 1.8 | 4.52 | 3.58 | 16.8 | 1.88 | 5.56 | 1.95 | 4.26 | 2.48 | 12.6
C=C1CC2(OC1=O)C(=O)N(CCCCCCCN1C(=O)C3(CC(=C)C(=O)O3)c3ccccc31)c1ccccc12 (stereo not given) | 1.08 | 2.72 | 7.51 | 17.2 | 2.89 | 9.49 | 1.4 | 5.96 | 1.13 | 3.07 | 1.18 | 3.49 | 6.8 | 15.4 | 0.966 | 2.29 | 1.49 | 5.42 | 0.896 | 6.42
COc1cc2c3c(n(C)c(=O)c2cc1OC)-c1cc2c(cc1/C3=C\CCCCCN)OCO2 | 0.271 | 18.4 | 31 | > 100 | 1.88 | 23.1 | 1.63 | 54.2 | 0.289 | 9.28 | 2.5 | 12.9 | 0.612 | > 45.9 | < 0.01 | 1.34 | 0.979 | > 50.9 | 0.0121 | 0.0641
